Measured values: ChEMBL document CHEMBL1130376, “Effects of taxoids from Taxus cuspidata on microtubule depolymerization and vincristine accumulation in MDR cells” (Bioorg Med Chem Lett, 1997)
Values after ≈ are worked out from the molar mass of the structure shown.

Experiments:
[1] = Cytotoxicity against human epidermoid carcinoma KB cells; assay type: functional, cell-based
L1210 = assay: Cytotoxicity against murine leukemia L1210 cells; assay type: functional, cell-based, Mus musculus; conditions: Mus musculus, L1210; read-out: IC50
[2] = Vincristine (VCR) accumulation in multidrug resistant human ovarian cancer 2780 AD cells at a concentration 1 ug/mL; assay type: functional
[3] = Vincristine (VCR) accumulation in multidrug resistant human ovarian cancer 2780 AD cells at a concentration 10 ug/mL; assay type: functional

C=C1[C@@H](OC(=O)CC(c2ccccc2)N(C)C)CC[C@@]2(C)[C@@H](OC(C)=O)[C@H](OC(C)=O)C3=C(C)C(=O)C[C@@](O)([C@@H](OC(C)=O)[C@H]12)C3(C)C (stereo not given in full)
IC50 [1]: > 10 µg/mL | IC50 (L1210): 2.7 µg/mL (≈ 4.04 µM) | vincristine accumulation (% of control) [2]: 175% | vincristine accumulation (% of control) [3]: 466%

C=C1[C@@H](OC(=O)/C=C/c2ccccc2)C[C@H](OC(C)=O)[C@]2(C)[C@@H]1C[C@@H]1C[C@H](OC(C)=O)C(C)=C([C@@H](OC(C)=O)[C@@H]2OC(C)=O)C1(C)C
IC50 [1]: > 10 µg/mL | IC50 (L1210): 4.9 µg/mL (≈ 7.53 µM) | vincristine accumulation (% of control) [2]: 266% | vincristine accumulation (% of control) [3]: 798%

C=C1[C@@H](OC(=O)CC(c2ccccc2)N(C)C)C[C@H](OC(C)=O)[C@@]2(C)[C@@H](OC(C)=O)[C@H](OC(C)=O)[C@@]3(O)C(C)=C(OC(C)=O)C[C@@H]([C@@H](OC(C)=O)[C@H]12)C3(C)C (stereo not given in full)
IC50 [1]: 2.6 µg/mL (≈ 3.38 µM) | IC50 (L1210): 2.5 µg/mL (≈ 3.25 µM) | vincristine accumulation (% of control) [2]: 133% | vincristine accumulation (% of control) [3]: 358%

C=C1[C@@H](OC(=O)/C=C/c2ccccc2)C[C@H](OC(C)=O)[C@@]2(COC(=O)c3ccccc3)[C@@H](OC(C)=O)[C@H](OC(C)=O)[C@]3(O)[C@@]4(C)CO[C@]3(C)C(=O)C[C@H]4[C@@H](OC(C)=O)[C@H]12
IC50 [1]: > 10 µg/mL | IC50 (L1210): > 10 µg/mL | vincristine accumulation (% of control) [2]: 169% | vincristine accumulation (% of control) [3]: 537%

C=C1[C@@H](O)C[C@H](OC(C)=O)[C@@]2(C)[C@@H](OC(C)=O)[C@H](OC(C)=O)[C@]3(O)[C@@]4(C)CO[C@]3(C)C(=O)C[C@H]4[C@@H](OC(C)=O)[C@H]12
IC50 [1]: > 10 µg/mL | IC50 (L1210): > 10 µg/mL | vincristine accumulation (% of control) [2]: 225% | vincristine accumulation (% of control) [3]: 213%

C=C1[C@@H](O)C[C@H](OC(C)=O)[C@@]2(C)[C@@H](OC(C)=O)[C@H](OC(C)=O)C3=C(C)[C@@H](OC(C)=O)C[C@@H]([C@@H](OC(C)=O)[C@H]12)C3(C)C [DECINNAMOYLTAXININE J]
IC50 [1]: > 10 µg/mL | IC50 (L1210): > 10 µg/mL | vincristine accumulation (% of control) [2]: 207% | vincristine accumulation (% of control) [3]: 363%

C=C1[C@@H](O)C[C@H](OC(C)=O)[C@@]2(C)[C@@H](OC(C)=O)[C@H](OC(=O)c3ccccc3)C3=C(C)[C@@H](OC(C)=O)C[C@@]3(C(C)(C)O)[C@@H](OC(C)=O)[C@H]12
IC50 [1]: > 10 µg/mL | IC50 (L1210): > 10 µg/mL | vincristine accumulation (% of control) [2]: 158% | vincristine accumulation (% of control) [3]: 313%

C=C1[C@@H](O)CC[C@@]2(C)[C@@H](OC(C)=O)[C@H](OC(C)=O)C3=C(C)C(=O)C[C@@H]([C@@H](O)[C@H]12)C3(C)C
IC50 [1]: > 10 µg/mL | IC50 (L1210): > 10 µg/mL | vincristine accumulation (% of control) [2]: 139% | vincristine accumulation (% of control) [3]: 271%

C=C1[C@@H](O)C[C@H](OC(C)=O)[C@@]2(COC(C)=O)[C@@H](OC(C)=O)[C@H](OC(C)=O)[C@]3(O)[C@@]4(C)CO[C@]3(C)C(=O)C[C@H]4[C@@H](OC(C)=O)[C@H]12
IC50 [1]: > 10 µg/mL | IC50 (L1210): > 10 µg/mL | vincristine accumulation (% of control) [2]: 142% | vincristine accumulation (% of control) [3]: 198%

C=C1[C@@H](O)C[C@H](OC(C)=O)[C@@]2(C)[C@@H](OC(C)=O)[C@H](OC(C)=O)C3=C(C)[C@@H](OC(C)=O)C[C@@H]([C@@H](O)[C@H]12)C3(C)C
IC50 [1]: 7.4 µg/mL (≈ 13.8 µM) | IC50 (L1210): 10 µg/mL (≈ 18.6 µM) | vincristine accumulation (% of control) [2]: 205% | vincristine accumulation (% of control) [3]: 439%

C=C1[C@@H](OC(=O)/C=C/c2ccccc2)C[C@H](OC(C)=O)[C@]2(C)[C@@H]1C[C@]1(C(C)(C)O)C[C@H](OC(C)=O)C(C)=C1[C@@H](OC(C)=O)[C@@H]2OC(C)=O [TAXUSPINE J]
IC50 [1]: > 10 µg/mL | IC50 (L1210): > 10 µg/mL | vincristine accumulation (% of control) [2]: 258% | vincristine accumulation (% of control) [3]: 842%

CC(=O)O[C@H]1C[C@H]2[C@@H](OC(C)=O)/C=C3\C[C@](C)(C(=O)[C@H](O)C(=C1C)C2(C)C)[C@@H](OC(C)=O)C[C@@H]3OC(=O)C(O)C(c1ccccc1)N(C)C (stereo not given in full)
IC50 [1]: > 10 µg/mL | IC50 (L1210): 7.1 µg/mL (≈ 10.4 µM) | vincristine accumulation (% of control) [2]: 119% | vincristine accumulation (% of control) [3]: 298%

CC(=O)OC[C@H]1[C@H]2[C@H](O)[C@]3(O)C[C@H](OC(C)=O)C(C)=C([C@@H](OC(C)=O)[C@H](OC(C)=O)[C@]2(C)[C@@H](OC(C)=O)C[C@@H]1OC(C)=O)C3(C)C
IC50 [1]: > 10 µg/mL | IC50 (L1210): 4.6 µg/mL (≈ 7.03 µM) | vincristine accumulation (% of control) [2]: 147% | vincristine accumulation (% of control) [3]: 208%

C=C1[C@@H](OC(=O)/C=C/c2ccccc2)C[C@H](OC(C)=O)[C@@]2(COC(C)=O)[C@@H](OC(C)=O)[C@H](O)[C@]3(O)[C@@]4(C)CO[C@]3(C)C(=O)C[C@H]4[C@@H](OC(C)=O)[C@H]12 [TAXUSPINE T]
IC50 [1]: 0.06 µg/mL (≈ 0.0842 µM) | IC50 (L1210): 1 µg/mL (≈ 1.4 µM) | vincristine accumulation (% of control) [2]: 196% | vincristine accumulation (% of control) [3]: 308%

CC(=O)O[C@H]1C[C@H]2OC[C@@]2(OC(C)=O)[C@H]2[C@H](OC(C)=O)[C@]3(C(C)(C)O)C[C@H](O)C(C)=C3[C@@H](OC(=O)c3ccccc3)[C@H](OC(C)=O)[C@]12C
IC50 [1]: > 10 µg/mL | IC50 (L1210): > 10 µg/mL | vincristine accumulation (% of control) [2]: 171% | vincristine accumulation (% of control) [3]: 240%
